Assay results from patent US9873680B2 (Gilead Sciences, Inc., priority 2014, dated 2018).
Where two headings read alike, the source gives them in different places.

Experiments:
HIV-IIIb = assay: Test A: Antiviral Assay in MT4 Cells; format: cell-based, HIV-1
Method: Test A: Antiviral Assay in MT4 Cells
MT-4 cells were next mixed with HIV-IIIb at an m.o.i of 0.003 for 1 hour, after which time 35 μL of virus/cell mixture (2000 cells) was immediately added to each well containing 40 μL of diluted compound. The plates were then incubated at 37° C. for 5 days. After 5 days of incubation, 25 μl of 2× concentrated CellTiter-Glo™ Reagent (catalog #G7571, Promega Biosciences, Inc., Madison, Wis.) was added to each well containing MT-4 cells. Cell lysis was carried out by incubating at room temperature for 10 min and then chemiluminescence was read.

[1] = Test B: Cytotoxicity Assay; format: cell-based; conditions: human, uninfected MT-4 cells, CellTiter-Glo
Method: Test B: Cytotoxicity Assay Compound cytotoxicity and the corresponding CC50 values was determined using the same protocol as described in the antiviral assay (Test A) except that uninfected cells were used.

[2] = Human immunodeficiency virus 1, MT4, 120 h, 0.2 μM drug concentration, MT-4 cells infected with HIV-IIIb, 5 days, values normalized to 100%, average over time, read-out: % inhibition at 0.2 μM (percent inhibition of virus-induced cell killing)

Cn1nc(NS(C)(=O)=O)c2cccc(-c3ccc(C#CC4(O)CC(F)(F)C4)nc3[C@H](Cc3cc(F)cc(F)c3)NC(=O)Cn3nc(C(F)(F)F)c4c3C(F)(F)[C@@H]3C[C@H]43)c21 [Compound 105D]
inhibition at 0.2 µM (HIV-IIIb; [2]): 88%
CC50 at 5 days [1]: 6.46 µM

N#Cc1ccc(C#Cc2ccc(-c3ccc4c(c3)C(=O)NC4)c([C@H](Cc3cc(F)cc(F)c3)NC(=O)Cn3nc(C(F)(F)F)c4c3C(F)(F)[C@@H]3C[C@H]43)n2)cc1 [Compound 9, N—((S)-1-(6-((4-cyanophenyl)ethynyl)-3-(3-oxoisoindolin-5-yl)pyridin-2-yl)-2-(3,5-difluorophenyl)ethyl)-2-((3bS,4aR)-5,5-difluoro-3-(trifluromethyl)-3b,4,4a,5-tetrahydro-1H-cyclopropa[3,4]cyclopenta[1,2-c]pyrazol-1-yl)acetamide]
inhibition at 0.2 µM (HIV-IIIb; [2]): 25%
CC50 at 5 days [1]: > 53.2 µM

Cn1nc(NS(C)(=O)=O)c2c(Cl)ccc(-c3ccc(C#CC(C)(C)N4CCOC4=O)nc3[C@H](Cc3cc(F)cc(F)c3)NC(=O)Cn3nc(C(F)F)c4c3C(F)(F)[C@@H]3C[C@H]43)c21 [Compound 60D, N—((S)-1-(3-(4-chloro-1-methyl-3-(methylsulfonamido)-1H-indazol-7-yl)-6-(3-methyl-3-(2-oxooxazolidin-3-yl)but-1-yn-1-yl)pyridin-2-yl)-2-(3,5-difluorophenyl)ethyl)-2-((3bS,4aR)-3-(difluoromethyl)-5,5-difluoro-3b,4,4a,5-tetrahydro-1H-cyclopropa[3,4]cyclopenta[1,2-c]pyrazol-1-yl)acetamide]
inhibition at 0.2 µM (HIV-IIIb; Human immunodeficiency virus 1, IIIB, MT4, 120 h, read-out: % inhibition at 0.2 μM (percent inhibition of virus-induced cell killing)): 94%
CC50 at 5 days [1]: > 27.8 µM

Cn1nc(N)c2cccc(-c3ccc(C#CC4(O)CCOCC4)nc3[C@H](Cc3cc(F)cc(F)c3)NC(=O)Cn3nc(C(F)(F)F)c4c3C(F)(F)[C@@H]3C[C@H]43)c21 [Compound 27, N—((S)-1-(3-(3-amino-1-methyl-1H-indazol-7-yl)-6-((4-hydroxytetrahydro-2H-pyran-4-yl)ethynyl)pyridin-2-yl)-2-(3,5-difluorophenyl)ethyl)-2-((3bS,4aR)-5,5-difluoro-3-(trifluoromethyl)-3b,4,4a,5-tetrahydro-1H-cyclopropa[3,4]cyclopenta[1,2-c]pyrazol-1-yl)acetamide]
inhibition at 0.2 µM (HIV-IIIb; [2]): 92%
CC50 at 5 days [1]: 15.8 µM

Cn1nc(NS(C)(=O)=O)c2c(Cl)ccc(-c3ccc(C#C[C@]4(C)CNCCO4)nc3[C@H](Cc3cc(F)cc(F)c3)NC(=O)Cn3nc(C(F)F)c4c3C(F)(F)[C@@H]3C[C@H]43)c21 [Compound 84, N—((S)-1-(3-(4-chloro-1-methyl-3-(methylsulfonamido)-1H-indazol-7-yl)-6-(((R)-2-methylmorpholin-2-yl)ethynyl)pyridin-2-yl)-2-(3,5-difluorophenyl)ethyl)-2-((3bS,4aR)-3-(difluoromethyl)-5,5-difluoro-3b,4,4a,5-tetrahydro-1H-cyclopropa[3,4]cyclopenta[1,2-c]pyrazol-1-yl)acetamide]
inhibition at 0.2 µM (HIV-IIIb; [2]): 88%
CC50 at 5 days [1]: 6.9 µM

Cc1cc(C#Cc2ncc(-c3ccc4c(c3)C(=O)NC4)c([C@H](Cc3cc(F)cc(F)c3)NC(=O)Cn3nc(C(F)F)c4c3C(F)(F)CCC4(F)F)n2)ccn1 [Compound 11, (S)-2-(3-(difluoromethyl)-4,4,7,7-tetrafluoro-4,5,6,7-tetrahydro-1H-indazol-1-yl)-N-(2-(3,5-difluorophenyl)-1-(2-((2-methylpyridin-4-yl)ethynyl)-5-(3-oxoisoindolin-5-yl)pyrimidin-4-yl)ethyl)acetamide]
inhibition at 0.2 µM (HIV-IIIb; [2]): 69%
CC50 at 5 days [1]: 0.761 µM

NC(=O)c1cc(-c2ccc(C#CC3(O)CC(F)(F)C3)nc2[C@H](Cc2cc(F)cc(F)c2)NC(=O)Cn2nc(C(F)F)c3c2C(F)(F)[C@@H]2C[C@H]32)ccc1F [Compound 106C, 5-(6-((3,3-difluoro-1-hydroxycyclobutyl)ethynyl)-2-((S)-1-(2-((3bS,4aR)-3-(difluoromethyl)-5,5-difluoro-3b,4,4a,5-tetrahydro-1H-cyclopropa[3,4]cyclopenta[1,2-c]pyrazol-1-yl)acetamido)-2-(3,5-difluorophenyl)ethyl)pyridin-3-yl)-2-fluorobenzamide]
inhibition at 0.2 µM (HIV-IIIb; [2]): 100%
CC50 at 5 days [1]: 2.85 µM

Cc1cc(C#Cc2ncc(-c3ccc(F)c(C(N)=O)c3)c([C@H](Cc3cc(F)cc(F)c3)NC(=O)Cn3nc(C(F)(F)F)c4c3C(F)(F)[C@@H]3C[C@H]43)n2)ccn1 [Compound 18C, 5-(4-((S)-1-(2-((3bS,4aR)-5,5-difluoro-3-(trifluoromethyl)-3b,4,4a,5-tetrahydro-1H-cyclopropa[3,4]cyclopenta[1,2-c]pyrazol-1-yl)acetamido)-2-(3,5-difluorophenyl)ethyl)-2-((2-methylpyridin-4-yl)ethynyl)pyrimidin-5-yl)-2-fluorobenzamide]
inhibition at 0.2 µM (HIV-IIIb; Human immunodeficiency virus 1, IIIB, MT4, 0.2 μM drug concentration, comparison with previously published compounds, read-out: Response at 0.2 μM (percent inhibition of virus-induced cell killing)): 90%
inhibition at 2 µM (HIV-IIIb; Human immunodeficiency virus 1, IIIB, MT4, 2 μM drug concentration, comparison with previously published compounds, read-out: Response at 2 μM (percent inhibition of virus-induced cell killing)): 94%
inhibition at 0.2 µM (HIV-IIIb; [2]): 90%
CC50 at 5 days [1]: 2.31 µM

Cn1nc(NS(C)(=O)=O)c2cccc(-c3ccc(C#CC4CCCCN4)nc3[C@H](Cc3cc(F)cc(F)c3)NC(=O)Cn3nc(C(F)(F)F)c4c3C(F)(F)[C@@H]3C[C@H]43)c21 (stereo partly drawn) [Compound 36B, 2-((3bS,4aR)-5,5-difluoro-3-(trifluoromethyl)-3b,4,4a,5-tetrahydro-1H-cyclopropa[3,4]cyclopenta[1,2-c]pyrazol-1-yl)-N-((1S)-2-(3,5-difluorophenyl)-1-(3-(1-methyl-3-(methylsulfonamido)-1H-indazol-7-yl)-6-(piperidin-2-ylethynyl)pyridin-2-yl)ethyl)acetamide]
inhibition at 0.2 µM (HIV-IIIb; [2]): 83%
CC50 at 5 days [1]: 6.57 µM

Cc1c(-c2ccc(C#CC3(O)COC3)nc2[C@H](Cc2cc(F)cc(F)c2)NC(=O)Cn2nc(C(F)(F)F)c3c2C(F)(F)[C@@H]2C[C@H]32)ccc2n[nH]c(=O)n12 [Compound 21, 2-((3bS,4aR)-5,5-difluoro-3-(trifluoromethyl)-3b,4,4a,5-tetrahydro-1H-cyclopropa[3,4]cyclopenta[1,2-c]pyrazol-1-yl)-N—((S)-2-(3,5-difluorophenyl)-1-(6-((3-hydroxyoxetan-3-yl)ethynyl)-3-(5-methyl-3-oxo-2,3-dihydro-[1,2,4]triazolo[4,3-a]pyridin-6-yl)pyridin-2-yl)ethyl)acetamide]
inhibition at 0.2 µM (HIV-IIIb; [2]): 100%
CC50 at 5 days [1]: 11.7 µM

Cn1nc(NS(C)(=O)=O)c2c(Cl)ccc(-c3ccc(C#CC4(C)OCCn5ccnc54)nc3[C@H](Cc3cc(F)cc(F)c3)NC(=O)Cn3nc(C(F)F)c4c3C(F)(F)[C@@H]3C[C@H]43)c21 (stereo partly drawn) [Compound 82, N-((1S)-1-(3-(4-chloro-1-methyl-3-(methylsulfonamido)-1H-indazol-7-yl)-6-((8-methyl-6,8-dihydro-5H-imidazo[2,1-c][1,4]oxazin-8-yl)ethynyl)pyridin-2-yl)-2-(3,5-difluorophenyl)ethyl)-2-((3bS,4aR)-3-(difluoromethyl)-5,5-difluoro-3b,4,4a,5-tetrahydro-1H-cyclopropa[3,4]cyclopenta[1,2-c]pyrazol-1-yl)acetamide]
inhibition at 0.2 µM (HIV-IIIb; [2]): 90%
CC50 at 5 days [1]: 29.6 µM

Cn1nc(NS(C)(=O)=O)c2c(Cl)ccc(-c3ccc(C#CC4(O)CC(F)(F)C4)nc3[C@H](Cc3cc(F)cc(F)c3)NC(=O)Cn3nc(C(F)(F)F)c4c3C(F)(F)[C@@H]3C[C@H]43)c21 [Compound 103, N—((S)-1-(3-(4-chloro-1-methyl-3-(methylsulfonamido)-1H-indazol-7-yl)-6-((3,3-difluoro-1-hydroxycyclobutyl)ethynyl)pyridin-2-yl)-2-(3,5-difluorophenyl)ethyl)-2-((3bS,4aR)-5,5-difluoro-3-(trifluoromethyl)-3b,4,4a,5-tetrahydro-1H-cyclopropa[3,4]cyclopenta[1,2-c]pyrazol-1-yl)acetamide]
inhibition at 0.2 µM (HIV-IIIb; [2]): 100%
CC50 at 5 days [1]: 9.21 µM

Cn1nc(NS(C)(=O)=O)c2c(Cl)ccc(-c3ccc(C#CC4CCCN4)nc3[C@H](Cc3cc(F)cc(F)c3)NC(=O)Cn3nc(C(F)(F)F)c4c3C(F)(F)[C@@H]3C[C@H]43)c21 (stereo partly drawn) [Compound 43H, N-((1S)-1-(3-(4-chloro-1-methyl-3-(methylsulfonamido)-1H-indazol-7-yl)-6-(pyrrolidin-2-ylethynyl)pyridin-2-yl)-2-(3,5-difluorophenyl)ethyl)-2-((3bS,4aR)-5,5-difluoro-3-(trifluoromethyl)-3b,4,4a,5-tetrahydro-1H-cyclopropa[3,4]cyclopenta[1,2-c]pyrazol-1-yl)acetamide]
inhibition at 0.2 µM (HIV-IIIb; [2]): 99%
CC50 at 5 days [1]: 4.34 µM

Cn1nc(NS(C)(=O)=O)c2c(Cl)ccc(-c3ccc(C#CC4(C)CNCCO4)nc3[C@H](Cc3cc(F)cc(F)c3)NC(=O)Cn3nc(C(F)F)c4c3C(F)(F)[C@@H]3C[C@H]43)c21 (stereo partly drawn) [Compound 77, N-((1S)-1-(3-(4-chloro-1-methyl-3-(methylsulfonamido)-1H-indazol-7-yl)-6-((2-methylmorpholin-2-yl)ethynyl)pyridin-2-yl)-2-(3,5-difluorophenyl)ethyl)-2-((3bS,4aR)-3-(difluoromethyl)-5,5-difluoro-3b,4,4a,5-tetrahydro-1H-cyclopropa[3,4]cyclopenta[1,2-c]pyrazol-1-yl)acetamide]
inhibition at 0.2 µM (HIV-IIIb; [2]): 90%
CC50 at 5 days [1]: 7.7 µM
